Series [1] has as its target Histamine H3 receptor (UniProt Q9Y5N1). In words: Binding assay for human or rat histamine H3 receptor ([3H] R-α-methylhistamine). The conditions noted are these: [3H] R-α-methylhistamine 3.0 nM; rat brain frontal cortex or recombinant human receptor in CHO cells (not specified which). As to the method:
Compounds can be evaluated according to the following procedures.
• Receptor source: Rat brain frontal cortex or recombinant human cDNA expressed in CHO cells • Radioligand: [^3H] R-α-methylhistamine • Final ligand concentration—[3.0 nM] • Non-specific determinant: R-α-methylhistamine (100 uM) • Reference compound: R-α-methylhistamine • Positive control: R-α-methylhistamine Incubation Conditions:
Increasing concentrations of test compounds or standard were incubated with membrane receptors and radioligand in 5 mM MgCl2 and 50 mM TRIS-HCl (pH 7.4) for 60 minutes at room temperature. The reaction was terminated by rapid vacuum filtration onto the glass fiber filters. Radioactivity trapped onto the filters was determined and compared to the control values in order to ascertain any interactions of the test compound(s) with either cloned human or rat receptor binding site.

Series [2] can be described thus: Rodent pharmacokinetic study. The series is classed as in vivo, Male Wistar rats. The conditions noted are these: whole blood, Wistar male rat; for AUC(0-t) / Cmax / Tmax / half-life: water, blood; for bioavailability: per oral 3 mg/kg vs intravenous 1 mg/kg. As to the method: Male Wistar rats (230-280 grams) obtained from NIN (National Institute of Nutrition, Hyderabad, India) were used as an experimental animal. Three animals were housed in each cage. Animals were kept fasted over night and maintained on a 12 hours light/dark cycle. Three rats were dosed New chemical entity (NCE) orally (3 or 10 mg/kg) and intravenously (1 or 5 mg/kg) on day 0 and day 2.
At each time point blood was collected by jugular vein. Blood was stored at 2-8° C. until analysis. The concentrations of the NCE compound in blood were determined using LC-MS/MS method. Schedule time points: Pre dose 0.08, 0.25, 0.5, 1, 2, 4, 6, 8 and 24 hours after dosing (n=3). The NCE compounds were quantified in blood by partially validated LC-MS/MS method using acetonitrile precipitation technique. NCE compounds were quantified in the calibration range of 1-2000 ng/mL in blood. Study samples were analyzed using calibration samples in the batch and quality control samples spread across the batch.
Pharmacokinetic parameters were calculated by non-compartmental model using software WinNonlin version 5.0.1.

For series [3], the system named is rats. In words: Morris water maze, reversal of scopolamine induced amnesia. The conditions noted are these: p.o., dose giving reversal. The series is classed as in vivo, rat. As to the method: The cognition-enhancing properties of compounds of this invention were estimated by using this model.
The water maze apparatus consisted of a circular pool (1.8 m diameter, 0.6 m high) constructed in black Perspex (TSE systems, Germany) filled with water (24±2° C.) and positioned underneath a wide-angled video camera to track animal. The 10 cm^2 perspex platform, lying 1 cm below the water surface, was placed in the centre of one of the four imaginary quadrants, which remained constant for all rats. The black Perspex used in the construction of the maze and platform offered no intramaze cues to guide escape behavior. By contrast, the training room offered several strong extramaze visual cues to aid the formation of the spatial map necessary for escape learning. An automated tracking system, [Videomot 2 (5.51), TSE systems, Germany] was employed. This program analyzes video images acquired via a digital camera and an image acquisition boards that determined path length, swim speed and the number of entries and duration of swim time spent in each quadrant of the water maze.

Series [4] concerns Male Wister rats. In words: Object recognition task model. The series is classed as in vivo, rat. As to conditions: for Exploration time mean ± S.E.M, Familiar object / Exploration time mean ± S.E.M, Novel object: choice trial T2, 24 hours after T1. As to the method: The cognition enhancing properties of compounds of this invention were estimated by using this model.
Male Wister rats (230-280 grams) obtained from N. I. N. (National Institute of Nutrition, Hyderabad, India) was used as experimental animals. Four animals were housed in each cage. Animals were kept on 20% food deprivation before one day and given water ad libitum throughout the experiment and maintained on a 12 hours light/dark cycle. Also the rats were habituated to individual arenas for 1 hour in the absence of any objects.
One group of 12 rats received vehicle (1 mL/Kg) orally and another set of animals received compound of the formula (I) either orally or i.p., before one hour of the familiar (T1) and choice trial (T2).
The experiment was carried out in a 50×50×50 cm open field made up of acrylic. In the familiarization phase, (T1), the rats were placed individually in the open field for 3 minutes, in which two identical objects (plastic bottles, 12.5 cm height×5.5 cm diameter) covered in yellow masking tape alone (a1 and a2) were positioned in two adjacent corners, 10 cms from the walls. After 24 hours of the (T1) trial for long-term memory test, the same rats were placed in the same arena as they were placed in T1 trial. Choice phase (T2) rats were allowed to explore the open field for 3 minutes in presence of one familiar object (a3) and one novel object (b) (Amber color glass bottle, 12 cm high and 5 cm in diameter). Familiar objects presented similar textures, colors and sizes. During the T1 and T2 trial, explorations of each object (defined as sniffing, licking, chewing or having moving vibrissae whilst directing the nose towards the object at a distance of less than 1 cm) were recorded separately by stopwatch. Sitting on an object was not regarded as exploratory activity, however, it was rarely observed. • T1 is the total time spent exploring the familiar objects (a1+a2). • T2 is the total time spent exploring the familiar object and novel object (a3+b).
The object recognition test was performed as described by Ennaceur, A., Delacour, J., 1988, A new one-trial test for neurobiological studies of memory in rats—Behavioural data, Behav. Brain Res., 31, 47-59.

Series [5] can be described thus: Rodent brain penetration study. The format is in vivo, Male Wister rats. The conditions noted are these: brain / whole blood; Wistar male rat; one value per compound, table lists intravenous 1 mg/kg and per oral 3 mg/kg, water; read-out: Brain Penetration Ratio (Cb/Cp). The method, then: Male Wister rats (230-280 grams) obtained from NIN (National Institute of Nutrition, Hyderabad, India) was used as experimental animals. Three animals were housed in each cage. Animals were given water and food ad libitum throughout the experiment, and maintained on a 12 hours light/dark cycle.
New chemical entity (NCE) was dissolved in suitable vehicle and administered orally (3 or 10 mg/kg). Around Tmax (i.e, 0.5 hour, 1.0 hour and 2.0 hours) animals were sacrificed. Blood and brain tissue were collected and brain was homogenized to yield 20% w/v. Blood was stored at 2-8° C. and brain homogenate was frozen at −20° C. until analysis. The concentrations of NCE in blood and brain were quantified using LC-MS/MS method.
The NCE was quantified in blood and brain homogenate by partially validated LC-MS/MS method using acetonitrile precipitation technique. NCE compounds were quantified in the calibration range of 1-500 ng/mL in blood and brain homogenate. Study samples were analyzed using calibration samples in the batch and quality control samples spread across the batch. Extents of brain-blood ratio were calculated (Cb/Cp).

Series [6] relates to rats. In words: Inhibition of food intake. The format is in vivo, rat. The conditions noted are these: p.o., rats fasted 18 hours. The method, then:
The anti-obesity properties of compounds of this invention were estimated using this model
The experiment consisted of 6 days. The rats were adapted to the 18 hours fasting and 6 hours feeding pattern. The animals were housed in a group of three in the cages provided with the fasting grills and was fasted for 18 hours. After 18 hours fasting the rats were separated and placed individually in the cage. Weighed amount of feed was provided to rats for 6 hours and the feed intake at 1 hour, 2 hours, 4 hours and 6 hours was measured
Again the rats were regrouped and fasted for 18 hours. The above procedure was followed for 5 days. The average cumulative food intake by the rats on the last 3 days was calculated. Animals were randomized on the basis of their previous three days food intake. On the day of experiment the rats were orally treated test compounds or vehicle. After 60 minutes, the feed was provided to the rats and the food intake at 1 hour, 2 hours, 4 hours and 6 hours was measured. The food intake by the rats treated with test compound was compared with the vehicle treated group by using Unpaired Student's t test.

This note sets out measurements from patent US8912179B2, “Heterocyclyl compounds as histamine H3 receptor ligands” (Suven Life Sciences Limited, priority 2010, dated 2014).

In general, Ki refers to the dissociation constant of the complex between target and ligand, obtained from inhibition or displacement. For orientation: AUC(0-t) means exposure summed from dosing to a finite time, without extrapolation to infinity. Low readings indicate less exposure, high ones more exposure. The Cmax is the peak of the concentration-time curve. By Tmax is commonly meant the time at which the peak concentration occurs. What is called half-life is the time in which the quantity being followed falls by half. Read a high half-life as slow loss. The bioavailability is the share of a dose that reaches the circulation, judged against a reference dose that is usually intravenous. A lower bioavailability goes with poor availability.

Regarding `O=C(C1CCOCC1)N1CCc2nc(OC3CCN(C4CCC4)CC3)sc2C1` [Example 28, [2-(1-Cyclobutyl-piperidin-4-yloxy)-6,7-dihydro-4H-thiazolo[5,4-c]pyridin-5-yl]-(tetrahydro-pyran-4-yl)-methanone], the Ki in series [1] is 39 nM. Moreover, in series [2] (intravenous, 1 mg/kg), the AUC(0-t) is 282 ± 23 ng·h/mL, the peak level (Cmax) was 370 ± 25 ng/mL, the time to peak (Tmax) came to 4.8 min and the half-life was 40.2 ± 3.6 min. In series [2], this compound had a bioavailability of 82 ± 38%. Further, in series [2] (per oral, 3 mg/kg), the exposure AUC(0-t) was determined as 701 ± 328 ng·h/mL, the highest level (Cmax) was 286 ± 40 ng/mL, the Tmax was 49.8 ± 17.4 min and the half-life was 57 ± 16.8 min. The “Reversal of Scopolamine Induced amnesia” value in series [3] was “≧10 mg/kg, p.o”. Also, in series [4] (0.3 mg/kg p.o.), the Inference entry is given as “Active”; the “Exploration time mean ± S.E.M, Familiar object” value was 6.12 ± 1.22 s; the “Exploration time mean ± S.E.M, Novel object” value is 11.44 ± 1.69 s.

Turning to `CCC(=O)N1CCc2nc(OC3CCN(C4CCC4)CC3)sc2C1.O=C(O)C(O)C(O)C(=O)O` [Example 1, 1-[2-(1-Cyclobutyl-piperidin-4-yloxy)-6,7-dihydro-4H-thiazolo[5,4-c]pyridin-5-yl]-propan-1-one tartrate], the Ki in series [1] turned out to be 3.83 nM. In series [2] (intravenous, 1 mg/kg), the exposure AUC(0-t) turned out to be 356 ± 61 ng·h/mL, the concentration peaked (Cmax) at 436 ± 118 ng/mL, the time of peak concentration (Tmax) turned out to be 4.8 min and the half-life is 58.8 ± 7.8 min. The compound also yielded a bioavailability in series [2] of 49 ± 5%. For the same compound, in series [2] (per oral, 3 mg/kg), the AUC(0-t) was 524 ± 51 ng·h/mL, the highest level (Cmax) was 329 ± 23 ng/mL, the time to peak (Tmax) worked out at 25.2 ± 8.4 min and the half-life was 57 ± 4.2 min. For the same compound, the “Reversal of Scopolamine Induced amnesia” value in series [3] is on record as “≦10 mg/kg, p.o”. In addition, the Kp in series [5] turned out to be 1.97 ± 0.24. Further, in series [4] (3 mg/kg p.o.), the Inference entry is listed as “Active”; the “Exploration time mean ± S.E.M, Familiar object” value is 7.8 ± 1.80 s; the “Exploration time mean ± S.E.M, Novel object” value amounted to 23.95 ± 3.15 s.

In the case of `CC(C)C(=O)N1CCc2nc(OC3CCN(C4CCC4)CC3)sc2C1.O=C(O)C(O)C(O)C(=O)O` [Example 22, 1-[2-(1-Cyclobutyl-piperidin-4-yloxy)-6,7-dihydro-4H-thiazolo[5,4-c]pyridin-5-yl]-2-methyl-propan-1-one tartrate], the Ki in series [1] came out at 9.5 nM. In addition, in series [2] (intravenous, 1 mg/kg), the area under the curve AUC(0-t) was 110 ± 15 ng·h/mL, the Cmax is 205 ± 47 ng/mL, the time of peak concentration (Tmax) amounted to 4.8 min and the half-life is 30 ± 3 min. Also, the bioavailability in series [2] was 65 ± 24%. In series [2] (per oral, 3 mg/kg), the AUC(0-t) is 206 ± 56 ng·h/mL, the peak concentration (Cmax) amounted to 189 ± 56 ng/mL, the time to peak (Tmax) is 25.2 ± 8.4 min and the half-life was 32.4 ± 6.6 min. The Kp in series [5] turned out to be 2.1 ± 0.13.

`O=C(C1CCC1)N1CCc2nc(OC3CCN(C4CCC4)CC3)sc2C1.O=C(O)C(O)C(O)C(=O)O` [Example 5, Cyclobutyl-[2-(1-cyclobutyl-piperidin-4-yloxy)-6,7-dihydro-4H-thiazolo[5,4-c]pyridin-5-yl]-methanone tartrate]: the Ki in series [1] was found to be 3.3 nM. For the same compound, in series [2] (intravenous, 1 mg/kg), the AUC(0-t) worked out at 155 ± 38 ng·h/mL, the maximum concentration (Cmax) came to 287 ± 58 ng/mL, the Tmax is 4.8 min and the half-life is 25.8 ± 6 min. The same compound had a bioavailability in series [2] of 25 ± 1%. In series [2] (per oral, 3 mg/kg), the AUC(0-t) amounted to 117 ± 34 ng·h/mL, the peak concentration (Cmax) stood at 101 ± 37 ng/mL, the time to peak (Tmax) is 25.2 ± 8.4 min and the half-life is 34.2 ± 6 min. The “Reversal of Scopolamine Induced amnesia” value in series [3] is on record as “≦3 mg/kg, p.o”. Besides, the Kp in series [5] stood at 3.08 ± 0.45. In addition, in series [4] (3 mg/kg p.o.), the Inference entry was “Active”; the “Exploration time mean ± S.E.M, Familiar object” value worked out at 7.15 ± 0.91 s; the “Exploration time mean ± S.E.M, Novel object” value is 11.44 ± 1.58 s.

On to `O=C(C1CC1)N1CCc2nc(OC3CCN(C4CCC4)CC3)sc2C1.O=C(O)C(O)C(O)C(=O)O` [Example 4, [2-(1-Cyclobutyl-piperidin-4-yloxy)-6,7-dihydro-4H-thiazolo[5,4-c]pyridin-5-yl]-cyclopropyl-methanone tartrate], for which the Ki in series [1] was found to be 7.2 nM. Besides, the “Inhibition of food intake” value in series [6] is 20 mg/kg, p.o. Further, in series [2] (intravenous, 1 mg/kg), the area under the curve AUC(0-t) was found to be 348 ± 7 ng·h/mL, the Cmax is 320 ± 62 ng/mL, the Tmax was found to be 4.8 min and the half-life was 75 ± 6.6 min. Moreover, the bioavailability in series [2] worked out at 39 ± 8%. For the same compound, in series [2] (per oral, 3 mg/kg), the area under the curve AUC(0-t) turned out to be 407 ± 89 ng·h/mL, the Cmax was determined as 199 ± 48 ng/mL, the time to peak (Tmax) was found to be 40.2 ± 17.4 min and the half-life is 100 ± 12.6 min. The “Reversal of Scopolamine Induced amnesia” value in series [3] is given as “≦10 mg/kg, p.o”. The Kp in series [5] was found to be 2.17 ± 0.17. Also, in series [4] (10 mg/kg p.o.), the Inference result was “Active”; the “Exploration time mean ± S.E.M, Familiar object” value stood at 7.8 ± 1.36 s; the “Exploration time mean ± S.E.M, Novel object” value turned out to be 20.32 ± 2.22 s.
